PMC8765437, “GSK3640254 Is a Novel HIV-1 Maturation Inhibitor with an Optimized Virology Profile” (Antimicrobial Agents and Chemotherapy, 2022)
Where two headings read alike, the source gives them in different places.

Key:
Assay type in all cases: cell-based
HIV-2 strains [1] = test: HIV-2 strains, luciferase activity in CEM-NKR-CCR5-Luc cells
Experimental: (§1) Virus yields were measured in dose-response experiments by either luciferase activity in human T-cells (CEM-NKR-CCR5-Luc), extracellular reverse transcriptase activity in MT-2 cells (T-tropic viruses), or extracellular p24 antigen in PM1 cells (M-tropic viruses).
(§2) Multiple-cycle assays using recombinant viruses or clinical isolates were used to assess MI antiviral activity as described previously ([10]). pNLRepRlucP373S (the P373S change is in the Gag gene and converts an outlier polymorphism in the NL4-3 gene to the prevalent amino acid in the population) plasmids containing SDMs in Gag or gag/pr regions from clinical isolates were transfected into HEK 293T cells, and the supernatant containing recombinant virus was harvested after 4 to 5 days. Virus was used to infect MT-2 cells in the presence of a 3-fold serially diluted compound at a final dimethyl sulfoxide (DMSO) concentration of 1%. The inocula of the reporter viruses were determined based on the luciferase activity detected on day 4 postinfection. […] Virus growth was determined on days 4 to 5 postinfection for reporter variants or days 5 to 11 for the other viruses. The reporter viruses were detected by a luciferase assay according to manufacturer protocols (Brite-Glo luciferase kit [Promega] for CEM-NKR-CCR5-Luc cells and Dual-Luciferase Reporter 1000 assay system [Promega] for the other cells), and luminescence was detected on a Wallac Trilux. The growth of clinical isolates in PBMCs was quantitated by reverse transcriptase activity in a 96-well scintillation proximity assay (SPA). […] Luminescence was detected on a Wallac Trilux programmed for tritium counting with SPA beads in opaque plates. The growth of the reporter-free laboratory M-tropic strains and clinical isolates was monitored by a p24 enzyme-linked immunosorbent assay (ELISA; PerkinElmer Life Sciences, Waltham, MA) performed on culture supernatants.
(§3) Maximal percent inhibition values were calculated as MPI = 100 – (mean signals at the 2 highest concentrations of compound/mean signal of 2 no-drug control wells) × 100.

HIV-2 strains [2] = test: HIV-2 strains, reverse transcriptase activity in MT-2 cells
Experimental: as §1
as §2, with “postinfection. The MOI (ratio of infectious virions to target cells) of reporter-free laboratory strains and clinical isolates was 0.005, as derived from a tissue culture infectious dose study. Clinical isolates or reporter-free viruses were examined in the reporter CEM-NKR-CCR5-Luc cells or PBMCs at MOIs ranging from 0.005 to 0.01. Each infection started with a drug-free preincubation of the cell-virus mixtures, performed at 37°C and 5% CO2 for either 1 h at 2 times the final cell density (reporter viruses) or 1 h (reporter-free laboratory strains) or 3 h (clinical isolates) using cell pellets in 0.5 mL of medium.” for “postinfection.”
as §3

HIV-1 clinical isolates = test: Inhibition of clinical isolates in PBMCs; conditions: Human immunodeficiency virus 1, PBMC
Experimental: Human peripheral blood mononuclear cells (PBMCs) were infected with isolates, and virus yields were measured by determining extracellular p24 protein levels (Table 4). […] These isolates were also examined in the NLRepRlucP373S virus by replacement of the gag/pr genes with those from these clinical isolates.
Peripheral blood mononuclear cells (BioReclamation, Westbury, NY) were cultured at 37°C and 5% CO2 in RPMI 1640 medium with 20% fetal bovine serum (Gibco Laboratories), 100 units/mL of penicillin G, 100 units/mL of streptomycin (Gibco Laboratories), and 1 ng/mL of recombinant human interleukin-2 (Invitrogen, Carlsbad, CA). Peripheral blood mononuclear cells were stimulated with 2 μg/mL of phytohemagglutinin (Sigma-Aldrich, St. Louis, MO) for 2 days before infection with HIV-1 clinical isolates.
Multiple-cycle assays using recombinant viruses or clinical isolates were used to assess MI antiviral activity as described previously ([10]). pNLRepRlucP373S (the P373S change is in the Gag gene and converts an outlier polymorphism in the NL4-3 gene to the prevalent amino acid in the population) plasmids containing SDMs in Gag or gag/pr regions from clinical isolates were transfected into HEK 293T cells, and the supernatant containing recombinant virus was harvested after 4 to 5 days. Virus was used to infect MT-2 cells in the presence of a 3-fold serially diluted compound at a final dimethyl sulfoxide (DMSO) concentration of 1%. The inocula of the reporter viruses were determined based on the luciferase activity detected on day 4 postinfection. The MOI (ratio of infectious virions to target cells) of reporter-free laboratory strains and clinical isolates was 0.005, as derived from a tissue culture infectious dose study. Clinical isolates or reporter-free viruses were examined in the reporter CEM-NKR-CCR5-Luc cells or PBMCs at MOIs ranging from 0.005 to 0.01. Each infection started with a drug-free preincubation of the cell-virus mixtures, performed at 37°C and 5% CO2 for either 1 h at 2 times the final cell density (reporter viruses) or 1 h (reporter-free laboratory strains) or 3 h (clinical isolates) using cell pellets in 0.5 mL of medium. After preincubation, cell-virus mixtures were added to compound-containing 96-well plates for a final cell density of either 10,000 (MT-2 cells for reporter viruses), 20,000 (MT-2 and PM1 cells for reporter-free laboratory strains), 200,000 (PBMCs for clinical isolates), or 500,000 (CEM-NKR-CCR5-Luc for reporter-free laboratory strains) cells per well. The CEM-NKR-CCR5-Luc cell assay was performed in the presence of Polybrene (10 μg/mL). Virus growth was determined on days 4 to 5 postinfection for reporter variants or days 5 to 11 for the other viruses. The reporter viruses were detected by a luciferase assay according to manufacturer protocols (Brite-Glo luciferase kit [Promega] for CEM-NKR-CCR5-Luc cells and Dual-Luciferase Reporter 1000 assay system [Promega] for the other cells), and luminescence was detected on a Wallac Trilux. The growth of clinical isolates in PBMCs was quantitated by reverse transcriptase activity in a 96-well scintillation proximity assay (SPA). Twenty microliters of culture supernatants was mixed with 40 μL of reaction cocktail (62.5 mM Tris-HCl [pH 7.8], 100 mM KCl, 0.0625% NP-40, 2.5 mM dithiothreitol [DTT], 6.25 mM MgCl2, 1 mM EGTA, 6.25 μg/mL of poly rA, 2.5 μg/mL of streptavidin SPA beads prebound with biotinylated-dT12-18, and 1 μCi of [^3H]TTP). Mixtures were incubated at 37°C for ∼3 h and quenched with 100 μl of 0.25 M EDTA per well. Luminescence was detected on a Wallac Trilux programmed for tritium counting with SPA beads in opaque plates. The growth of the reporter-free laboratory M-tropic strains and clinical isolates was monitored by a p24 enzyme-linked immunosorbent assay (ELISA; PerkinElmer Life Sciences, Waltham, MA) performed on culture supernatants.

[3] = Human immunodeficiency virus 2, HIV-2 ROD, first value in cell
[4] = Human immunodeficiency virus 2, MT2, HIV-2 287
[5] = Human immunodeficiency virus 2, MT2, HIV-2 ROD, second value in cell
[6] = read-out: Mean EC50, subtype A 92UG037
[7] = read-out: Mean EC50, subtype A 93RW029
[8] = read-out: Mean EC50, subtype A 93RW034
[9] = read-out: Mean EC50, subtype AE 93TH023
[10] = read-out: Mean EC50, subtype AE 93TH053
[11] = read-out: Mean EC50, subtype AE CMU010
[12] = read-out: Mean EC50, subtype B 92BR003
[13] = read-out: Mean EC50, subtype B 92BR018
[14] = read-out: Mean EC50, subtype B 93BR009
[15] = read-out: Mean EC50, subtype B 93BR013
[16] = read-out: Mean EC50, subtype B 93BR017
[17] = read-out: Mean EC50, subtype C 93MW960
[18] = read-out: Mean EC50, subtype C 97ZA012
[19] = read-out: Mean EC50, subtype C 98BR004
[20] = read-out: Mean EC50, subtype C 10215-6
[21] = read-out: Mean EC50, subtype C 20706-3
[22] = read-out: Mean EC50, subtype C MJ4

Row | Compound | EC50 (HIV-2 strains [1]; [3]) [nM] | EC50 (HIV-2 strains [2]; [4]) [nM] | EC50 (HIV-2 strains [2]; [5]) [nM] | EC50 (HIV-1 clinical isolates; [6]) [nM] | EC50 (HIV-1 clinical isolates; [7]) [nM] | EC50 (HIV-1 clinical isolates; [8]) [nM] | EC50 (HIV-1 clinical isolates; [9]) [nM] | EC50 (HIV-1 clinical isolates; [10]) [nM] | EC50 (HIV-1 clinical isolates; [11]) [nM] | EC50 (HIV-1 clinical isolates; [12]) [nM] | EC50 (HIV-1 clinical isolates; [13]) [nM] | EC50 (HIV-1 clinical isolates; [14]) [nM] | EC50 (HIV-1 clinical isolates; [15]) [nM] | EC50 (HIV-1 clinical isolates; [16]) [nM] | EC50 (HIV-1 clinical isolates; [17]) [nM] | EC50 (HIV-1 clinical isolates; [18]) [nM] | EC50 (HIV-1 clinical isolates; [19]) [nM] | EC50 (HIV-1 clinical isolates; [20]) [nM] | EC50 (HIV-1 clinical isolates; [21]) [nM] | EC50 (HIV-1 clinical isolates; [22]) [nM] | other results
1 | C=C(C)[C@@H]1CC[C@]2(NCCN3CCS(=O)(=O)CC3)CC[C@]3(C)[C@H](CC[C@@H]4[C@@]5(C)CC=C(C6=CC[C@@](CF)(C(=O)O)CC6)C(C)(C)[C@@H]5CC[C@]43C)[C@@H]12 [GSK’254] | > 3000 | > 1390 | 2.5 | 5 | 3 | 1 | 1 | 5 | 3 | 2 | 77 | 1 | 3 | 1 | 9 | 3 | 1 | 1 | 4 | 3 | EC50 (HIV-2 strains [1]; Human immunodeficiency virus 2, HIV-2 287): 1240 nM; EC50 (HIV-1 clinical isolates; read-out: Mean EC50, subtype B 93BR008): 50 nM; EC50 (HIV-1 clinical isolates; read-out: Mean EC50, subtype B 93US143): 2 nM; EC50 (HIV-1 clinical isolates; read-out: mean EC50, subtype A/AE isolates): 3 nM; EC50 (HIV-1 clinical isolates; read-out: mean EC50, subtype B isolates): 19 nM; EC50 (HIV-1 clinical isolates; read-out: mean EC50, subtype C isolates): 3.5 nM
2 | C=C(C)[C@@H]1CC[C@]2(NCCN3CCS(=O)(=O)CC3)CC[C@]3(C)[C@H](CC[C@@H]4[C@@]5(C)CC=C(c6ccc(C(=O)O)cc6)C(C)(C)[C@@H]5CC[C@]43C)[C@@H]12 [GSK’795, reference compound] | > 3000 | 751 | 17 | 2 | 6 | 2 | 533 | 18 | 35 | 4 | 145 | 2 | 9 | 10 | 1580 | 4 | 1 | 13 | 4 | 7 | EC50 (HIV-1 clinical isolates; read-out: mean EC50 toward clinical isolates, panel of HIV-1 clinical isolates, subtypes A, B, C, CRF01_AE): 138 nM
